Data published in a compilation of properties of binary mixtures (doi:10.1021/acs.iecr.6b02875).

Experiment: xn = mol fraction of the nth substance listed
Conditions: 101 kPa; for electrical conductivity: 298.15 K

CCCOCCn1cc[n+](C)c1.O=S(=O)([N-]S(=O)(=O)C(F)(F)F)C(F)(F)F + O
x1 = 0.8308
Conditions | viscosity [mPa·s]
293 K | 48
303 K | 31.6
313 K | 21.9
323 K | 15.9
333 K | 12
343 K | 9.2
353 K | 7.3

Conditions | electrical conductivity [S/m]
x1 = 0.8308 | 0.404

CCOCC[n+]1ccn(C)c1.O=S(=O)([N-]S(=O)(=O)C(F)(F)F)C(F)(F)F + O
x1 = 0.8421
Conditions | viscosity [mPa·s]
293 K | 42.4
303 K | 27.8
313 K | 19.5
323 K | 14.2
333 K | 10.7
343 K | 8.3
353 K | 6.5

Conditions | electrical conductivity [S/m]
x1 = 0.8421 | 0.499

CCOCn1cc[n+](C)c1.O=S(=O)([N-]S(=O)(=O)C(F)(F)F)C(F)(F)F + O
x1 = 0.8413
Conditions | viscosity [mPa·s]
283 K | 81.6
293 K | 48.9
298.1 K | 38.8
303 K | 31.4
313 K | 21.6
323 K | 15.7
343 K | 9.1
353 K | 7.2

Conditions | electrical conductivity [S/m]
x1 = 0.8413 | 0.504

COCCCn1cc[n+](C)c1.O=S(=O)([N-]S(=O)(=O)C(F)(F)F)C(F)(F)F + O
x1 = 0.8318
Conditions | viscosity [mPa·s]
293 K | 49.6
298.1 K | 39.7
303 K | 32.1
313 K | 22.1
323 K | 15.9
333 K | 11.8
343 K | 9.1
353 K | 7.1

Conditions | electrical conductivity [S/m]
x1 = 0.8318 | 0.44

COCC[n+]1ccn(C)c1.O=S(=O)([N-]S(=O)(=O)C(F)(F)F)C(F)(F)F + O
x1 = 0.838
Conditions | viscosity [mPa·s]
293 K | 41.5
298.1 K | 33.3
303 K | 27.4
313 K | 19.4
323 K | 14.2
333 K | 10.7
343 K | 8.4
353 K | 6.7

COC[n+]1ccccc1.O=S(=O)([N-]S(=O)(=O)C(F)(F)F)C(F)(F)F + O
x1 = 0.8484
Conditions | viscosity [mPa·s]
283 K | 75.6
293 K | 46.3
313 K | 21.7
323 K | 15.8
343 K | 9.4
353 K | 7.5

COC[n+]1ccn(C)c1.O=S(=O)([N-]S(=O)(=O)C(F)(F)F)C(F)(F)F + O
x1 = 0.8281
Conditions | viscosity [mPa·s]
293 K | 48.3
298.1 K | 38.4
303 K | 31.1
313 K | 21.4
323 K | 15.4
333 K | 11.4
343 K | 8.8
353 K | 7

Conditions | electrical conductivity [S/m]
x1 = 0.8281 | 0.594
